Paper PMC10788915, “Fragment Merging, Growing, and Linking Identify New Trypanothione Reductase Inhibitors for Leishmaniasis” (Journal of Medicinal Chemistry, 2024)

Assays:
[1] = test system: L. infantum axenic amastigotes; experiment: In vitro inhibition of axenic amastigote growth (MTT); format: cell-based, Leishmania infantum; conditions: Leishmania infantum, 72 h, read-out: axenic amastigote EC50 ± SE (95% CI)
Procedure: Axenic amastigote growth inhibition was evaluated using L. infantum strain (MHOM/TN/80/IPT1, WHO international reference strain). Axenic amastigote cultures were obtained as described previously with modifications.[45] Promastigotes were grown in Schneider’s Drosophila medium (SIGMA) containing 10% heat-inactivated fetal calf serum (FCS)(GIBCO-BRL) and 2% gentamicin (50 mg/L)(Sigma) in 25 cm^2 flasks at 22 °C. After 4–5 days, the parasites were adjusted to 1 × 10^6 parasites/mL in axenic medium MAA/20 consisting of modified medium 199 (Gibco BRL) with Hanks’ salts supplemented with 0.5% tryptic soy broth (Sigma), 0.01 mM bathocuproine disulfonic acid, 3 mM L-cysteine, 15 mM D-glucose, 5 mM L-glutamine, 4 mM NaHCO3, 0.023 mM bovine hemin, and 25 mM HEPES to a final pH of 6.5 and supplemented with 20% pretested FCS, and axenic amastigotes were obtained by shifting the incubation conditions: 198 μL of suspension was seeded in triplicate in 96-well flat bottom microplates and incubated at 37 °C, 5% CO2 for 48 h in order to allow the axenization. The amastigote cells were visualized under the light microscope to confirm transformation. Then, 2 μL of the selected compounds with varying concentrations were added: 100, 50, 25, 12.5, 6.25, 3.12, 1.56, 0.8, 0.4, 0.2, 0.1, 0.05 μM. […] Each experiment was conducted in triplicate for each drug concentration, and three independent experiments were performed. To estimate the 50% inhibitory concentration (IC50), the (3-[4.5-dimethylthiazol-2-yl]-2.5-diphenyltetrazolium bromide) (MTT) micromethod was used throughout the experiments with modification. After 72 h of incubation, 30 μL of MTT was added to each well, and the plates were further incubated for 3 h. The absorbance at 550 nm was measured with a 96-well scanner. Antileishmanial activity was expressed as the percentage of inhibition in the number of live parasites compared to that in the control (nontreated parasites). % inhibition was calculated as follows: % growth inhibition = [(absorb cell with drug × 100)/absorb cell control] – 100. Results were analyzed by GraphPad Prism 5.0, dose–response curves were obtained and IC50 deduced (GraphPad Software Inc., San Diego, USA).

[2] = Cytotoxicity assay on human THP-1-derived macrophages (MTT); format: cell-based; conditions: human, THP-1 cells differentiated into macrophages with PMA, 72 h, MTT; read-out: human THP-1-derived macrophage CC50 ± SE (95% CI)
Procedure: (§1) To assess the cytotoxicity of compounds on mammalian macrophages, we tested all the compounds against both human leukemia monocyte cell line (THP-1 cells, ATCC) differentiated into macrophages by treatment with 40 ng/mL of phorbol myristate acetate (PMA; Sigma) for 48 h and peritoneal exudate macrophages harvested from Balb/c mice. […] Cell viability was evaluated using the MTT assay, and the concentration of the compound that produced a 50% reduction of cell viability in treated culture cells with respect to untreated ones (CC50) was determined by GraphPad Prism 5.0 (GraphPad Software Inc., San Diego, USA). […] The selectivity index for each compound was calculated as the ratio of cytotoxicity (CC50) in macrophages cells to activity (IC50) against Leishmania axenic amastigotes. The experiments were performed in triplicate, and two independent experiments were conducted.

[3] = test system: human THP-1-derived macrophages; experiment: as above; format: cell-based
Procedure: as §1

[4] = Cytotoxicity assay on primary murine macrophages (MTT); format: cell-based, Balb/c mice; conditions: Balb/c, mouse, primary peritoneal exudate macrophages, read-out: primary murine macrophage CC50 ± SE (95% CI)
Procedure: as §1

[5] = test system: L. infantum intramacrophage amastigotes; experiment: Ex vivo inhibition of intramacrophage amastigote growth; format: cell-based, Leishmania infantum; conditions: Leishmania infantum, Macrophage, in Mus musculus, 72 h, murine macrophages infected with L. infantum amastigotes, 72 h, read-out: intramacrophage amastigote EC50 ± SE (95% CI)
Procedure: Balb/c murine macrophages were used to perform ex vivo assay since the parasites infect them more effectively. Macrophages (5 × 10^5/well) were placed on glass coverslips within a 24-well culture plate and incubated with complete RPMI in a 5% CO2 incubator at 37 °C for 4 h to achieve cell adhesion. After this time, L. infantum amastigotes from spleens of previously infected hamsters were added onto the macrophages adhering to the coverslips at the ratio of 10:1 (parasites/macrophages). After 24 h of infection, the noninternalized amastigotes were removed by washes with RPMI. The infected macrophages were incubated with complete RPMI medium (control) or medium containing different concentrations of compounds in a 5% CO2 incubator at 37 °C for 72 h. Then, the coverslips were fixed with methanol, stained with Giemsa 10%, and analyzed by optical microscopy. The percentage of the infected macrophages and the number of amastigotes per infected macrophage were determined by random counting of 100 cells in each coverslip. Infection was judged to be adequate if more than 70% of the macrophages in the untreated control were infected. Activity for each compound was expressed as percentage of parasite burden reduction = infectivity index of treated cells/infectivity index of untreated cells. The infectivity index was calculated as follows: number of infected macrophages × mean number of amastigotes per macrophage / total number of macrophages. Nonlinear regression analysis (Graph-Pad Software Inc., San Diego, USA) was used for curve fitting and calculation of 50% inhibitory concentrations (IC50). The experiments were performed in triplicate, and two independent experiments were conducted.

[6] = test system: L. infantum axenic amastigotes; conditions: stated for the control (Euroclone) in the axenic amastigote method; read-out: IC50 of the control drug; cited from earlier work

## C[C@@H]1[C@H](O)[C@@H](C)/C=C/C=C/C=C/C=C/C=C/C=C/C=C/[C@H](O[C@@H]2O[C@H](C)[C@@H](O)[C@H](N)[C@@H]2O)C[C@@H]2O[C@](O)(C[C@@H](O)C[C@@H](O)[C@H](O)CC[C@@H](O)C[C@@H](O)CC(=O)O[C@H]1C)C[C@H](O)[C@H]2C(=O)O [AmpB, Amphotericin B, reference compound]
[1]
  EC50: 0.8 ± 0.4 µM
[2]
  CC50 at 72 h: 21.1 ± 3 µM
[3]
  SI = human THP-1-derived macrophage CC50/axenic amastigote EC50: 26.4
[4]
  CC50 at 72 h: 16.7 ± 2.05 µM
[5]
  EC50: 0.54 ± 0.3 µM
[6]
  IC50: 0.5 µM
